One data set deals with GST-BIR2 (XIAP fragment). Description: fluorescence polarization binding of rhodamine-SMAC. How it is done:
Assays were run in 50 mM Tris @ pH 7.2/100 mM NaCl/0.1% BSA.

A further data set has as its system Jurkat leukemia cells. Briefly: Jurkat cell death (Annexin V / propidium iodide flow cytometry). The format is cell-based. Particulars: for % nonviable cells: 20 hours; for cells killed: one day treatment. How it is done: The following assay was used to test the ability of individual compounds from the TPI 1396 and TPI 1391 libraries to induce apoptosis of cultured tumor cell lines. Each of the compounds listed in Table IX was individually added to Jurkat leukemia cells (6.25×10^5 cells/mL) in RPMI containing 2.5% FBS at various concentrations for 20 hours. After incubation, cells were washed and stained with FITC-conjugated Annexin V antibody and propidium iodide (Biovision; Mountain View, Calif.). Cells were incubated for 20 minutes at room temperature in the dark and fluorescence was measured by flow cytometry (FACScan, Immunocytometry system; Becton-Dickinson; San Jose, Calif.). Cells staining positive for Annexin V were deemed non-viable.
A general note: Flow cytometry measures light scatter and fluorescence of single cells or particles in a stream.

The target of a further data set is full length XIAP (Homo sapiens, UniProt P98170). Briefly: potency of IAP antagonists at restoring caspase-3 activity / SMAC competition assay (Table VIII). Particulars: for EC50: amount of compound necessary to restore caspase-3 activity to 50% of Vmax; for Relative Potency: fold relative to SMAC AVPI tetrapeptide.
The test system of data set [1] is normal bone marrow mononuclear cells. Description: normal bone marrow cell toxicity (Annexin V). Particulars: 5 μM, 20 hours. The format is cell-based. How it is done: After incubation, cells were washed, stained with FITC-conjugated Annexin V antibody and propidium iodide, and fluorescence measured by flow cytometry as described above.
Data set [2] has as its system PPC1 prostate cancer cells. Briefly: PPC1 tumor xenograft. It is filed as in vivo, Balb/C nu-/nu- mice. The settings on record: 30 mg/kg i.p. for 2 or 3 days. An excerpt:
Similar data was obtained using TPI 1396-22 (see FIG. 33a and 33b). […] In FIG. 33b, the mice were sacrificed at day 19 and the tumors excised and weighed.

Data set [3] concerns NCI panel of 60 tumor cell lines. Description: NCI panel of 60 tumor cell lines, protein-based colorimetric assay. More on the design: species or system human. The settings on record: 48 hours. How it is done: Selected polyphenylurea compounds were tested on the National Cancer Institute (NCI) panel of 60 tumor cell lines (see FIG. 28a and FIG. 29).
For another data set, the target named is T1, XIAP-inhibited caspase-3 (Homo sapiens, UniProt P98170).
T1 construct: in the derepression assay using full length XIAP; made in house; host or cells: bacteria
Briefly: caspase derepression assay (XIAP-inhibited caspase-3, Ac-DEVD-AFC hydrolysis). The format is biochemical. How it is done: Caspase activity was assayed by release of 7-amino-4-trifluoromethyl-coumarin (AFC) from Ac-DEVD-AFC synthetic peptide using a Molecular Devices Spectromax 340 (see Zhou et al., J. Biol. Chem. 272:7797–7800 (1997)). […] The ratio of Vmax for hydrolysis of Ac-DEVD-AFC in the presence and absence of the candidate mixture was calculated and used to identify those that contain an agent that derepresses an IAP-inhibited caspase.
Screening of each mixture from the DCR390, TPI 1239 or TPI 1328 library, respectively, using the above described assay was carried out as follows. Each mixture was aliquoted in a 25 microliter volume and in duplicate to a well of a 96 well microtiter plate. […] Fluorescence of liberated AFC was immediately detected from each well for 30 minutes at 30 second intervals. The Vmax for hydrolysis of AC-DEVD-AFC from each well was measured using the softmax software package. Results of the screen for the DCR390 library are shown in Table I. Sets of mixtures having the same position fixed with different respective amino acids are arranged in 6 sections identified with the position number. […] The mixture in each section are arranged in descending order according to apparent velocity in the second column.
Briefly, recombinant proteins were produced in bacteria and purified as described, for example, in Deveraux et al., Nature 388:300–304(1997). […] Generation of fluorogenic AFC (7-amino-4-trifluoromethyl coumarin) product was measured with a spectrofluorometric plate reader in kinetic mode for 30 minutes at 37° C. using excitation and emission wavelengths of 405 nm and 510 nm, respectively. […] Control reactions lacked XIAP, and all assays were conducted in the linear range of substrate hydrolysis to avoid substrate depletion artifacts.

Data set [4] has as its system ALVA31 prostate cancer cells. Briefly: ALVA31 cell viability (XTT dye-reduction and trypan blue exclusion). The format is cell-based. Particulars: peptides 40 μM, VP-16 100 μM, 24 hrs. The procedure: The in vivo effects of TPI 792-33 or TPI 792-35, either individually or in combination with the cytotoxic anticancer drug VP-16 (etoposide), on derepression of XIAP-inhibited caspase and viability of ALVA31 cells was determined as follows. ALVA31 prostate cancer cells were seeded onto 96 well plates (10^4 cells/well) in 100 μL RPMI containing 2.5% fetal bovine serum (FBS). […] After another 24 hrs incubation, cell viability was measured by the XTT dye-reduction assay (Roche, Molecular Biochemicals; Indianapolis, Ind.) and trypan blue dye exclusion assay.
For orientation: Tetrazolium dyes change colour on reduction, which living cells bring about.

In data set [5] the test system is NCI panel of 60 tumor cell lines. The settings on record: same assay, comparison drug; cited from earlier work.
Data set [6] relates to mouse embryo fibroblasts (MEFs). Briefly: mechanism-based toxicity in MEFs from XIAP -/- and wild type mice (MTT). The settings on record: MEFs with or without SV40 large T antigen. The format is cell-based. The procedure: Cells were either tested directly at low passage (FIGS. 38A and C) or after transformation by infection with a retrovirus encoding SV40 large T antigen (FIGS. 38B and D). […] Cell viability was measured by MTT assay, expressing data as a percentage relative to control, untreated cells. Data shown in FIG. 38A–D represent mean±standard deviation of triplicate determinations.

For the next data set, the system named is GST-XIAP BIR2. Briefly: binding of XIAP-BIR2 to biotinylated peptides on Neutravidin plates. The settings on record: biotinylated peptides adsorbed to Neutravidin-coated plates. An excerpt:
Bound GST polypeptides were detected with an anti-GST antibody.

Square brackets hold non-standard residues; d marks the D form. Ends that are not written are not given here. Peptide text beside a SMILES is read from it. * marks the point of attachment. 5TAMRA = CN(C)c1ccc2c(c1)Oc1cc(N(C)C)ccc1C21OC(=O)c2cc(C(=O)*)ccc21; Phe(4-Cl) = N[C@@H](Cc1ccc(Cl)cc1)C(=O)O; 2Nal = N[C@@H](Cc1ccc2ccccc2c1)C(=O)O; Fmoc = O=C(OCC1c2ccccc2-c2ccccc21)*; 2Thi = N[C@@H](Cc1cccs1)C(=O)O

full length XIAP, sequence (P98170 whole entry): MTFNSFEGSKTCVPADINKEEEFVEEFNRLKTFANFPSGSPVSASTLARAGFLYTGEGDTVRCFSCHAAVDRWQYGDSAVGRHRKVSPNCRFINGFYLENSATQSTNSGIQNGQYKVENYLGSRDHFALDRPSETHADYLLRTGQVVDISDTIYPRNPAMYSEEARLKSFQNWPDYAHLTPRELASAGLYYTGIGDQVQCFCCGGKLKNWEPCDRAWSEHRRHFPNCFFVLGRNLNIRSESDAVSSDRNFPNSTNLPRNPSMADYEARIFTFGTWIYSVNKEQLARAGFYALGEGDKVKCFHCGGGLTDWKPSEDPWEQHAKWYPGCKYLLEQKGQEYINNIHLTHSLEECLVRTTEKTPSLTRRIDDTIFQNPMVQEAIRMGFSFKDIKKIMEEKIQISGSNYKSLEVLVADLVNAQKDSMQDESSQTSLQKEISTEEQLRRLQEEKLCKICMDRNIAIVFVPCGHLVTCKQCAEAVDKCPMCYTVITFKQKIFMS
GST-XIAP BIR2, sequence (P98170 124-240 limits assumed): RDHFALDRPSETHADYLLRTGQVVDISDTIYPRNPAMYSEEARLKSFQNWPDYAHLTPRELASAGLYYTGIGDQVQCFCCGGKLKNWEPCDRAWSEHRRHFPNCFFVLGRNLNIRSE
T1 sequence (P98170 whole entry): as the sequence (P98170 whole entry) above

By Kd is commonly meant the free concentration of one partner at which half of the binding sites on the other are occupied at equilibrium, for simple one-to-one binding. Low readings indicate a tighter complex, high ones a looser complex. Turning to `CC[C@H](C)[C@H](NC(=O)[C@@H]1CCCN1C(=O)[C@@H](NC(=O)[C@H](C)N)C(C)C)C(=O)N[C@@H](C)C(=O)N[C@@H](CCC(N)=O)C(=O)N[C@@H](CCCCNC(=O)c1ccc2c(c1)C(=O)OC21c2ccc(N(C)C)cc2Oc2cc(N(C)C)ccc21)C(N)=O` [Rhodamine-SMAC] (H-AVPIAQK(5TAMRA)-NH2; N-terminus and C-terminus assumed), at GST-BIR2 (XIAP fragment), the Kd stood at 20 µM.

A word on the EC50: it is the midpoint of the concentration-response curve. Consider `CCCCCCCN1C(=O)C(=O)N(C(CCCC)CNCc2ccccc2)CC1Cc1ccc2ccccc2c1` (stereo not drawn) [TPI 1391-21], for which the “% nonviable cells” value is listed as 16% in the data set with Jurkat leukemia cells (1 μM); 11% with Jurkat leukemia cells (5 μM (first column headed 5)); 18% in the data set with Jurkat leukemia cells (5 μM (second column headed 5)); 44% with Jurkat leukemia cells (10 μM); 91% in the data set on Jurkat leukemia cells (25 μM); 94% in the data set with Jurkat leukemia cells (50 μM). Besides, the EC50 at full length XIAP is 33.6 µM. Moreover, at full length XIAP, the “Relative Potency” value turned out to be 3.7.

Turning to `CC(C)CC1CN(C(CNCc2ccccc2)Cc2ccc3ccccc3c2)C(=O)C(=O)N1CCc1cccc(C(F)(F)F)c1` (stereo not drawn) [TPI 1391-28], in data set [1], the “toxicity to normal bone marrow cells” value is “little toxicity”. In addition, the “% nonviable cells” value is on record as 19% in the data set on Jurkat leukemia cells (1 μM); 12% in the data set on Jurkat leukemia cells (5 μM (first column headed 5)); 28% with Jurkat leukemia cells (5 μM (second column headed 5)); 55% in the data set with Jurkat leukemia cells (10 μM); 87% with Jurkat leukemia cells (25 μM); 91% in the data set on Jurkat leukemia cells (50 μM). The cells killed result is recorded as “about 45%” in the data set on Jurkat leukemia cells (5 μM) and approximately 80% in the data set on Jurkat leukemia cells (8 μM). Further, the concentration for a half-maximal effect (EC50) in the data set on Jurkat leukemia cells (one-day exposure, 0 to 20 μM, read-out: EC50 for killing Jurkat leukemia cells) was approximately 6.5 µM; at full length XIAP, 25.1 µM. Also, the “Relative Potency” value on full length XIAP is recorded as 5.

For the compound `COc1ccc(CCN2CCCC2CN(C(=O)Nc2ccccc2)C(CNC(=O)Nc2ccccc2)Cc2ccc3ccccc3c2)cc1` (stereo not drawn) [TPI 1396-22], the “tumor growth / tumor size” value in [2] is listed as “significantly slowed the rate of growth”. In addition, in data set [3], the “average LD50 for the 60 cell lines” value was found to be 11 ± 2.6 µM and the “median LD50 for the 60 cell lines” value was 22 µM. Moreover, on full length XIAP, the EC50 amounted to 45.3 µM and the “Relative Potency” value came to 2.8. The “Activity (relative caspase-3 activity, ratio of Vmax with compound to Vmax of caspase-3 and XIAP controls)” value at XIAP-inhibited caspase-3 (Table X, R2 = L-Proline) turned out to be 3.3. Besides, at XIAP-inhibited caspase-3 (active / inactive), the “activity in the derepression assay using full length XIAP” value is “active”.

In the case of `COc1cc([C@@H]2c3cc4c(cc3[C@@H](O[C@@H]3O[C@@H]5CO[C@@H](C)O[C@H]5[C@H](O)[C@H]3O)[C@H]3COC(=O)[C@H]23)OCO4)cc(OC)c1O` [VP-16, etoposide], in data set [4], the “effect on cell viability, agent alone” value is recorded as “essentially no effect”. In [5], the “mean LD50 in the NCI panel of 60 tumor cell lines” value was 200 ± 2.5 µM.

For the compound `COc1cccc2c1C(=O)c1c(O)c3c(c(O)c1C2=O)C[C@@](O)(C(C)=O)C[C@@H]3O[C@H]1C[C@H](N)[C@H](O)[C@H](C)O1` [daunorubicin], the “selectivity for transformed versus non-transformed cells” value in data set [6] was “do not display selectivity for transformed cells”.

Take “TPI 1554-1: biotinylated TPI 1453-1 ([2Thi][2Nal][Phe(4-Cl)]K(Fmoc); also: biotinylated (site not given here))”: the “binding to XIAP-BIR2” value with GST-XIAP BIR2 is listed as “comparable to the binding of SMAC peptides”.

Take “TPI 1554-2: biotinylated TPI 1453-6 ([2Thi][2Nal][dK](Fmoc)K(Fmoc); also: biotinylated (site not given here))”: the “binding to XIAP-BIR2” value in the data set on GST-XIAP BIR2 is “comparable to the binding of SMAC peptides”.

These data come from patent publication US7217688B2, “Methods and compositions for derepression of IAP-inhibited caspase” (The Burnham Institute, priority 2005, dated 2007).
